Data from ChEMBL document CHEMBL4813941, “Secondary Metabolites from the Leather Coral-Derived Fungal Strain Xylaria sp. FM1005 and Their Glycoprotein IIb/IIIa Inhibitory Activity” (J Nat Prod, 2021).
Where “and” joins values, the source holds several entries; their conditions need not be identical. Identical values can stand only once. Calls of active or inactive are those of the source. No cut-off for these calls is given here.

How the values were obtained:
Plasma [1] = test: Antiplatelet activity in Sprague-Dawley rat platelet-rich plasma assessed as inhibition of ADP-induced platelet aggregation at 1 ug/ml preincubated for 5 mins followed by ADP addition and measured after 5 mins by light microscopic analysis; type: functional, cell-free; conditions: dose 1.0 µg/ml, time 10.0 min
Plasma [2] = test: Antiplatelet activity in Sprague-Dawley rat platelet-rich plasma assessed as inhibition of CaCl2-induced platelet aggregation at 1 ug/ml preincubated for 5 mins followed by CaCl2 addition and measured after 5 mins by light microscopic analysis; type: functional, cell-free; conditions: dose 1.0 µg/ml, time 10.0 min
[3] = molecular target: T1, Integrin subunit alpha 2b/beta-3 (Rattus norvegicus) (UniProt D3ZAC0+Q8R2H2); test: (§1) Inhibition of fibrinogen binding to rat platelet integrin alpha2b beta3 by ELISA based solid phase binding assay; type: cell-based
[4] = molecular target: T2, Integrin subunit alpha 2b/beta-3 (Rattus norvegicus, UniProt D3ZAC0+Q8R2H2); test: as §1; type: cell-based
T2 sequence (D3ZAC0 whole entry): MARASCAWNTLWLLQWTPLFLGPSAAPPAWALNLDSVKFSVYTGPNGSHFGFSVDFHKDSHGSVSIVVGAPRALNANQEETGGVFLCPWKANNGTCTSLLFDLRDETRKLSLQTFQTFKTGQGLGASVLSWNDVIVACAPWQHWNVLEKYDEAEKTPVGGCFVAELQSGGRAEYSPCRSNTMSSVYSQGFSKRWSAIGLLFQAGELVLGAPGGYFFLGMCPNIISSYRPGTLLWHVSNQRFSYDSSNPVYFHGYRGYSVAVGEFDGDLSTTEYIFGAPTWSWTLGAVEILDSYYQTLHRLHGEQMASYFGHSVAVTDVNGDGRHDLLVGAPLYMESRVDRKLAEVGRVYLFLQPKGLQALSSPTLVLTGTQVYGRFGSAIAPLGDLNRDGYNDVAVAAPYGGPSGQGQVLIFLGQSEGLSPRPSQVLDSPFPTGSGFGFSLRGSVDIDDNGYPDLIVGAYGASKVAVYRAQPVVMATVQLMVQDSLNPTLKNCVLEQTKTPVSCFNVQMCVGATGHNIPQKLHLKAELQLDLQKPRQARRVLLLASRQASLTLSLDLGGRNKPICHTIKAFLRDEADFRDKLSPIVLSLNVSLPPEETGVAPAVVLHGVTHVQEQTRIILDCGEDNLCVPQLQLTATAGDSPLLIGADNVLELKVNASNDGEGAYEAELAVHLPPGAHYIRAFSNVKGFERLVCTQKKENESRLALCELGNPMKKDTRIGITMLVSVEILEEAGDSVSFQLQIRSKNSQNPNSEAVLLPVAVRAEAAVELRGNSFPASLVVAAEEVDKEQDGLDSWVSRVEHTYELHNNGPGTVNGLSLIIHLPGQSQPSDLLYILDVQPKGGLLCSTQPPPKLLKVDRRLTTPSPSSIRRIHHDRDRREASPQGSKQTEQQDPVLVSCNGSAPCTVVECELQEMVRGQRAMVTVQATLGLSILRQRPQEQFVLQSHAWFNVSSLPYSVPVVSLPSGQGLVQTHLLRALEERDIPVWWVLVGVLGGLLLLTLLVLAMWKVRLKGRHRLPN
T2 sequence (Q8R2H2 whole entry): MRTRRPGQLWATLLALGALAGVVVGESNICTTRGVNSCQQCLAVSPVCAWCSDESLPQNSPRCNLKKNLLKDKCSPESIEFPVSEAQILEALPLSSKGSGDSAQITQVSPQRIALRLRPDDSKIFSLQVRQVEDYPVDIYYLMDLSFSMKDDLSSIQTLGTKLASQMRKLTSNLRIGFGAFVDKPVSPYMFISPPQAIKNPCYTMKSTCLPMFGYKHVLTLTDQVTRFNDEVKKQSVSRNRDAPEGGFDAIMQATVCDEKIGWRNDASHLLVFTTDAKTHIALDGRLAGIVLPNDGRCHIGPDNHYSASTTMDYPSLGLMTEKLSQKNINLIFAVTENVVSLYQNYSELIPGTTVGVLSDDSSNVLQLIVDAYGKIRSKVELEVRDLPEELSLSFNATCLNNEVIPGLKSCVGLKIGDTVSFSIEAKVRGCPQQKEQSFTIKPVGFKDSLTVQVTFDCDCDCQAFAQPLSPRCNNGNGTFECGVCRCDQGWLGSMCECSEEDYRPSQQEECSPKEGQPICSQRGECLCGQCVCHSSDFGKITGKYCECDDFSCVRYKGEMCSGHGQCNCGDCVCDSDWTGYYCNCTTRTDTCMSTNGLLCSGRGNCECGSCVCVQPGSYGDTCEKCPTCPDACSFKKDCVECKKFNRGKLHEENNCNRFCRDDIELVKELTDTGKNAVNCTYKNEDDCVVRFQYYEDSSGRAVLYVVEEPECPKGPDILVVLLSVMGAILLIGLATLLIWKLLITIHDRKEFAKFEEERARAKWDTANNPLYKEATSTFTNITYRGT

Staphylococcus aureus = test: Antibacterial activity against Staphylococcus aureus at 80 ug/ml incubated for 24 hrs by resazurin dye based broth microdilution method; type: functional, organism-based; conditions: dose 80.0 µg/ml
Bacillus subtilis = test: Antibacterial activity against Bacillus subtilis at 80 ug/ml incubated for 24 hrs by resazurin dye based broth microdilution method; type: functional, organism-based; conditions: dose 80.0 µg/ml
Pseudomonas aeruginosa = test: Antibacterial activity against Pseudomonas aeruginosa at 80 ug/ml incubated for 24 hrs by resazurin dye based broth microdilution method; type: functional, organism-based; conditions: dose 80.0 µg/ml
Escherichia coli = test: Antibacterial activity against Escherichia coli at 80 ug/ml incubated for 24 hrs by resazurin dye based broth microdilution method; type: functional, organism-based; conditions: dose 80.0 µg/ml
A2780 = test: Antiproliferative activity against human A2780 cells at 40 uM incubated for 72 hrs by CyQuant assay; type: cell-based; conditions: a2780, 72 h
HEK293 = test: Antiproliferative activity against human HEK293 cells at 40 uM by SRB assay; type: cell-based; conditions: hek293, 40 µM
[5] = molecular target: T1, Integrin subunit alpha 2b/beta-3 (Rattus norvegicus); test: Inhibition of fibrinogen binding to rat platelet integrin alpha2b beta3 at 1 ug/ml by ELISA based solid phase binding assay; type: cell-based; conditions: dose 1.0 µg/ml

SMILES: CC#CCOc1ccc(C[C@H](NC(=O)CCCCC)C(=O)OC)cc1
- Activity (Plasma [1]): Active
- Activity (Plasma [2]): Active
- inhibition [3]: Dose-Dependent Effect
- IC50 [4]: 890 nM and 897 nM
- Activity (Staphylococcus aureus): inactive
- Activity (Bacillus subtilis): inactive
- Activity (Pseudomonas aeruginosa): inactive
- Activity (Escherichia coli): inactive
- Activity (A2780): Non-Toxic
- Activity (HEK293): Non-Toxic

SMILES: CCCCS(=O)(=O)N[C@@H](Cc1ccc(OCCCCC2CCNCC2)cc1)C(=O)O [TIROFIBAN]
- IC50 [4]: 130 nM and 136 nM

SMILES: C/C(=C/COc1ccc(CC(=O)O)cc1)C(=O)O
- Activity (Plasma [1]): inactive
- Activity (Plasma [2]): inactive
- inhibition [5]: inactive
- Activity (Staphylococcus aureus): inactive
- Activity (Bacillus subtilis): inactive
- Activity (Pseudomonas aeruginosa): inactive
- Activity (Escherichia coli): inactive
- Activity (A2780): Non-Toxic
- Activity (HEK293): Non-Toxic

SMILES: CC#CCOc1ccc(C[C@H](NC(=O)CCC)C(=O)O)cc1
- Activity (Plasma [1]): inactive
- Activity (Plasma [2]): inactive
- inhibition [5]: inactive
- Activity (Staphylococcus aureus): inactive
- Activity (Bacillus subtilis): inactive
- Activity (Pseudomonas aeruginosa): inactive
- Activity (Escherichia coli): inactive
- Activity (A2780): Non-Toxic
- Activity (HEK293): Non-Toxic

SMILES: CCCCCC(=O)N[C@@H](Cc1ccc(OCC#CCO)cc1)C(=O)O
- Activity (Plasma [1]): inactive
- Activity (Plasma [2]): inactive
- inhibition [5]: inactive
- Activity (Staphylococcus aureus): inactive
- Activity (Bacillus subtilis): inactive
- Activity (Pseudomonas aeruginosa): inactive
- Activity (Escherichia coli): inactive
- Activity (A2780): Non-Toxic
- Activity (HEK293): Non-Toxic

SMILES: CC#CCOc1ccc(C[C@H](NC(=O)CCCC)C(=O)O)cc1
- Activity (Plasma [1]): inactive
- Activity (Plasma [2]): inactive
- inhibition [5]: inactive
- Activity (Staphylococcus aureus): inactive
- Activity (Bacillus subtilis): inactive
- Activity (Pseudomonas aeruginosa): inactive
- Activity (Escherichia coli): inactive
- Activity (A2780): Non-Toxic
- Activity (HEK293): Non-Toxic

SMILES: CC#CCOc1ccc(C[C@H](NC(=O)CCCCC)C(=O)O)cc1
- Activity (Plasma [1]): Active
- Activity (Plasma [2]): Active
- inhibition [3]: Dose-Dependent Effect
- IC50 [4]: 610 nM and 603 nM
- Activity (Staphylococcus aureus): inactive
- Activity (Bacillus subtilis): inactive
- Activity (Pseudomonas aeruginosa): inactive
- Activity (Escherichia coli): inactive
- Activity (A2780): Non-Toxic
- Activity (HEK293): Non-Toxic
